Molecules are shown by their SMILES.

One series concerns Plasma. The settings on record: human.
Another series is described as follows: clinical. The settings on record: human, in vivo.

With `CC(=O)Nc1ccc(O)cc1` [ACETAMINOPHEN], the fu with Plasma is 1. On the same count and under the same terms, the result for `CC(C)(C)NCC(O)c1ccc(O)c(CO)c1` (configuration not stated) [ALBUTEROL] reads 0.93. On the same count and under the same terms, the result for `CN(C)CCC=C1c2ccccc2CCc2ccccc21` [AMITRIPTYLINE] reads 0.06. With `CCC1(CCC(C)C)C(=O)NC(=O)NC1=O` [AMOBARBITAL], the Vd in “clinical” was found to be 1.05 L/kg. `Cc1cc(=O)n(-c2ccccc2)n1C` [ANTIPYRINE] showed a fu in the series on Plasma of 0.87. Regarding `CC(C)NCC(O)COc1ccc(CC(N)=O)cc1` (configuration not stated) [ATENOLOL], the fu with Plasma is recorded as 0.91. For `O=C(O)CCCc1ccc(N(CCCl)CCCl)cc1` [CHLORAMBUCIL], in the series “clinical”, the Vd turned out to be 0.29 L/kg. Compound `O=C(N[C@H](CO)[C@H](O)c1ccc([N+](=O)[O-])cc1)C(Cl)Cl` [CHLORAMPHENICOL] came in with a fu in the series with Plasma of 0.47.

`CN(C)CCC(c1ccc(Cl)cc1)c1ccccn1` (configuration not stated) [CHLORPHENIRAMINE] returned a fu with Plasma of 0.3. The same measure, in the same setting: under `CN/C(=N/CCSCc1nc[nH]c1C)NC#N` [CIMETIDINE] stands 0.81. The same measure, in the same setting: under `Clc1cccc(Cl)c1N=C1NCCN1` [CLONIDINE] stands 0.8; under `COc1ccc2c3c1O[C@H]1[C@@H](O)C=C[C@H]4[C@@H](C2)N(C)CC[C@@]341` [CODEINE], 0.93. On the same count and under the same terms, the result for `CN1C(=O)CN=C(c2ccccc2)c2cc(Cl)ccc21` [DIAZEPAM] reads 0.02; that for `O=C(O)Cc1ccccc1Nc1c(Cl)cccc1Cl` [DICLOFENAC], 0.01.

For the compound `C[C@H]1O[C@@H](O[C@H]2[C@@H](O)C[C@H](O[C@H]3[C@@H](O)C[C@H](O[C@H]4CC[C@@]5(C)[C@H](CC[C@@H]6[C@@H]5C[C@@H](O)[C@]5(C)[C@@H](C7=CC(=O)OC7)CC[C@]65O)C4)O[C@@H]3C)O[C@@H]2C)C[C@H](O)[C@@H]1O` [DIGOXIN], in the series “clinical”, the Vd is 3.12 L/kg. As to `C[C@]12CC[C@@H]3c4ccc(O)cc4CC[C@H]3[C@@H]1CC[C@@H]2O` [ESTRADIOL], in the series with Plasma, the fu is 0.015.

With `NC(N)=Nc1nc(CSCCC(N)=NS(N)(=O)=O)cs1` [FAMOTIDINE], the fu with Plasma came out at 0.83. Same read-out and setting: under `NS(=O)(=O)c1cc(C(=O)O)c(NCc2ccco2)cc1Cl` [FUROSEMIDE] stands 0.03; under `C[C@]12CCC(=O)C=C1CC[C@@H]1[C@@H]2[C@@H](O)C[C@@]2(C)[C@H]1CC[C@]2(O)C(=O)CO` [HYDROCORTISONE], 0.09. As to `CC(C(=O)O)c1cccc(C(=O)c2ccccc2)c1` (configuration not stated) [KETOPROFEN], the Vd in “clinical” worked out at 0.15 L/kg. In turn, `Cc1cnc(NC(=O)C2=C(O)c3ccccc3S(=O)(=O)N2C)s1` [MELOXICAM] returned a fu with Plasma of 0.006. On to `CN(C)C(=N)N=C(N)N` [METFORMIN], for which, in the series “clinical”, the Vd amounted to 2.45 L/kg. In the case of `CN1CC[C@]23c4c5ccc(O)c4O[C@H]2[C@@H](O)C=C[C@H]3[C@H]1C5` [MORPHINE], the fu in the series with Plasma came to 0.61. The same measure, in the same setting: the result for `COc1ccc2cc([C@H](C)C(=O)O)ccc2c1` [NAPROXEN] reads 0.01. Turning to `CC1(C)S[C@@H]2[C@H](NC(=O)Cc3ccccc3)C(=O)N2[C@H]1C(=O)O` [PENICILLIN G], the fu with Plasma amounted to 0.425. Same read-out and setting: under `C[C@]12C=CC(=O)C=C1CC[C@@H]1[C@@H]2[C@@H](O)C[C@@]2(C)[C@H]1CC[C@]2(O)C(=O)CO` [PREDNISOLONE] stands 0.075; under `C[C@]12C=CC(=O)C=C1CC[C@@H]1[C@@H]2C(=O)C[C@@]2(C)[C@H]1CC[C@]2(O)C(=O)CO` [PREDNISONE], 0.25.

`CC(CN1c2ccccc2Sc2ccccc21)N(C)C` (configuration not stated) [PROMETHAZINE]: in the series on Plasma, the fu turned out to be 0.07. Still for that read-out and setting: the result for `CCCNCC(O)COc1ccccc1C(=O)CCc1ccccc1` (configuration not stated) [PROPAFENONE] reads 0.05.

Compound `CC(C)NCC(O)COc1cccc2ccccc12` (configuration not stated) [PROPRANOLOL] showed a fu in the series with Plasma of 0.1. For `CCC(C)(C)C(=O)O[C@H]1C[C@@H](C)C=C2C=C[C@H](C)[C@H](CC[C@@H]3C[C@@H](O)CC(=O)O3)[C@H]21` [SIMVASTATIN], the Vd in “clinical” is 0.98 L/kg.

On to `COc1cc(Cc2cnc(N)nc2N)cc(OC)c1OC` [TRIMETHOPRIM], for which, in the series with Plasma, the fu is 0.63.
